Experimental data taken from ChEMBL document CHEMBL3885881, “DrugMatrix”.

Organism: Rattus norvegicus
Test: DrugMatrix - Regimen: Daily Repeat
Type: toxicity, organism-based, Sprague-Dawley
Parameters: regimen Daily Repeat, gender Male, age 6-8 weeks
Settings: in vivo, iv, vehicle 100 % SALINE; for ABSOLUTE BASOPHIL / ABSOLUTE EOSINOPHIL / ABSOLUTE LYMPHOCYTE / ABSOLUTE MONOCYTE / ABSOLUTE SEGMENTED NEUTROPHIL / BASOPHIL / EOSINOPHIL / ERYTHROCYTE COUNT / HEMATOCRIT / HEMOGLOBIN / LEUKOCYTE COUNT / LYMPHOCYTE / MEAN CORPUSCULAR HEMOGLOBIN / MEAN CORPUSCULAR HEMOGLOBIN CONCENTRATION / MEAN CORPUSCULAR VOLUME / MONOCYTE / NEUTROPHIL / NUCLEATED RED BLOOD CELLS / PLATELET COUNT: tissue Blood; for ALANINE AMINOTRANSFERASE / ALBUMIN / ALKALINE PHOSPHATASE / ASPARTATE AMINOTRANSFERASE / BLOOD UREA NITROGEN / CARBON DIOXIDE / CHLORIDE / CHOLESTEROL / CREATINE PHOSPHOKINASE / CREATININE / GLUCOSE / LACTATE DEHYDROGENASE / LIPASE / PHOSPHORUS / POTASSIUM / SODIUM / TOTAL BILIRUBIN / TOTAL PROTEIN / URIC ACID: tissue Plasma
[1] = 0.07 mg/kg, 72 h, dose level Low, time 3 day
[2] = 0.07 mg/kg, 120 h, dose level Low, time 5 day
[3] = […], 72 h, dose 0.16 mg/Kg, dose level High, time 3 day
[4] = […], 120 h, dose 0.16 mg/Kg, dose level High, time 5 day

Structure (SMILES): CNC(=O)Oc1ccc2c(c1)[C@]1(C)CCN(C)[C@@H]1N2C [PHYSOSTIGMINE]
- ABSOLUTE BASOPHIL [1]: 0 CELLS/uL
- ABSOLUTE EOSINOPHIL [1]: 271.33 CELLS/uL
- ABSOLUTE LYMPHOCYTE [1]: 11715.67 CELLS/uL
- ABSOLUTE MONOCYTE [1]: 88.33 CELLS/uL
- ABSOLUTE SEGMENTED NEUTROPHIL [1]: 1491.33 CELLS/uL
- BASOPHIL [1]: 0%
- EOSINOPHIL [1]: 2%
- ERYTHROCYTE COUNT [1]: 5.08 x10E6/uL
- HEMATOCRIT [1]: 32.57%
- HEMOGLOBIN [1]: 12.27 G/DL
- LEUKOCYTE COUNT [1]: 13.57 x10E3/uL
- LYMPHOCYTE [1]: 86.67%
- MEAN CORPUSCULAR HEMOGLOBIN [1]: 24.13 pg
- MEAN CORPUSCULAR HEMOGLOBIN CONCENTRATION [1]: 37.67 G/DL
- MEAN CORPUSCULAR VOLUME [1]: 64.1 fL
- MONOCYTE [1]: 0.67%
- NEUTROPHIL [1]: 10.67%
- NUCLEATED RED BLOOD CELLS [1]: 0 /100WBC
- PLATELET COUNT [1]: 1091 x10E3/uL
- ALANINE AMINOTRANSFERASE [1]: 64.33 u/L
- ALBUMIN [1]: 4.03 G/DL
- ALKALINE PHOSPHATASE [1]: 342.67 u/L
- ASPARTATE AMINOTRANSFERASE [1]: 99.67 u/L
- BLOOD UREA NITROGEN [1]: 14.67 mg/dL
- CARBON DIOXIDE [1]: 24.67 mmol/L
- CHLORIDE [1]: 105.33 MEQ/L
- CHOLESTEROL [1]: 67.33 mg/dL
- CREATINE PHOSPHOKINASE [1]: 386 u/L
- CREATININE [1]: 0.14 mg/dL
- GLUCOSE [1]: 161.67 mg/dL
- LACTATE DEHYDROGENASE [1]: 95.33 u/L
- LIPASE [1]: 7.67 u/L
- PHOSPHORUS [1]: 12.37 mg/dL
- POTASSIUM [1]: 5.92 MEQ/L
- SODIUM [1]: 144.47 MEQ/L
- TOTAL BILIRUBIN [1]: 0.17 mg/dL
- TOTAL PROTEIN [1]: 5.73 G/DL
- URIC ACID [1]: 1.23 mg/dL
- ABSOLUTE BASOPHIL [2]: 0 CELLS/uL
- ABSOLUTE EOSINOPHIL [2]: 138.33 CELLS/uL
- ABSOLUTE LYMPHOCYTE [2]: 16178.33 CELLS/uL
- ABSOLUTE MONOCYTE [2]: 247.67 CELLS/uL
- ABSOLUTE SEGMENTED NEUTROPHIL [2]: 2735.67 CELLS/uL
- BASOPHIL [2]: 0%
- EOSINOPHIL [2]: 0.67%
- ERYTHROCYTE COUNT [2]: 5.42 x10E6/uL
- HEMATOCRIT [2]: 34.33%
- HEMOGLOBIN [2]: 13.27 G/DL
- LEUKOCYTE COUNT [2]: 19.3 x10E3/uL
- LYMPHOCYTE [2]: 84%
- MEAN CORPUSCULAR HEMOGLOBIN [2]: 24.43 pg
- MEAN CORPUSCULAR HEMOGLOBIN CONCENTRATION [2]: 38.7 G/DL
- MEAN CORPUSCULAR VOLUME [2]: 63.27 fL
- MONOCYTE [2]: 1.33%
- NEUTROPHIL [2]: 14%
- NUCLEATED RED BLOOD CELLS [2]: 0 /100WBC
- PLATELET COUNT [2]: 1244.33 x10E3/uL
- ALANINE AMINOTRANSFERASE [2]: 50 u/L
- ALBUMIN [2]: 4.33 G/DL
- ALKALINE PHOSPHATASE [2]: 370 u/L
- ASPARTATE AMINOTRANSFERASE [2]: 86.67 u/L
- BLOOD UREA NITROGEN [2]: 22 mg/dL
- CARBON DIOXIDE [2]: 24 mmol/L
- CHLORIDE [2]: 102 MEQ/L
- CHOLESTEROL [2]: 62.33 mg/dL
- CREATINE PHOSPHOKINASE [2]: 479.33 u/L
- CREATININE [2]: 0.2 mg/dL
- GLUCOSE [2]: 168 mg/dL
- LACTATE DEHYDROGENASE [2]: 93.67 u/L
- LIPASE [2]: 8 u/L
- PHOSPHORUS [2]: 13.33 mg/dL
- POTASSIUM [2]: 6.49 MEQ/L
- SODIUM [2]: 141.5 MEQ/L
- TOTAL BILIRUBIN [2]: 0.2 mg/dL
- TOTAL PROTEIN [2]: 6.17 G/DL
- URIC ACID [2]: 1.63 mg/dL
- ABSOLUTE BASOPHIL [3]: 0 CELLS/uL
- ABSOLUTE EOSINOPHIL [3]: 107 CELLS/uL
- ABSOLUTE LYMPHOCYTE [3]: 10987.67 CELLS/uL
- ABSOLUTE MONOCYTE [3]: 71.33 CELLS/uL
- ABSOLUTE SEGMENTED NEUTROPHIL [3]: 1134 CELLS/uL
- BASOPHIL [3]: 0%
- EOSINOPHIL [3]: 1%
- ERYTHROCYTE COUNT [3]: 5.42 x10E6/uL
- HEMATOCRIT [3]: 33.77%
- HEMOGLOBIN [3]: 13 G/DL
- LEUKOCYTE COUNT [3]: 12.3 x10E3/uL
- LYMPHOCYTE [3]: 88.33%
- MEAN CORPUSCULAR HEMOGLOBIN [3]: 24.03 pg
- MEAN CORPUSCULAR HEMOGLOBIN CONCENTRATION [3]: 38.57 G/DL
- MEAN CORPUSCULAR VOLUME [3]: 62.37 fL
- MONOCYTE [3]: 0.67%
- NEUTROPHIL [3]: 10%
- NUCLEATED RED BLOOD CELLS [3]: 0 /100WBC
- PLATELET COUNT [3]: 1231 x10E3/uL
- ALANINE AMINOTRANSFERASE [3]: 56.33 u/L
- ALBUMIN [3]: 4.17 G/DL
- ALKALINE PHOSPHATASE [3]: 305 u/L
- ASPARTATE AMINOTRANSFERASE [3]: 87.33 u/L
- BLOOD UREA NITROGEN [3]: 15.33 mg/dL
- CARBON DIOXIDE [3]: 27.67 mmol/L
- CHLORIDE [3]: 107 MEQ/L
- CHOLESTEROL [3]: 78.67 mg/dL
- CREATINE PHOSPHOKINASE [3]: 187.33 u/L
- CREATININE [3]: 0.13 mg/dL
- GLUCOSE [3]: 159.33 mg/dL
- LACTATE DEHYDROGENASE [3]: 115.33 u/L
- LIPASE [3]: 8.67 u/L
- PHOSPHORUS [3]: 13.93 mg/dL
- POTASSIUM [3]: 6.15 MEQ/L
- SODIUM [3]: 147.9 MEQ/L
- TOTAL BILIRUBIN [3]: 0.17 mg/dL
- TOTAL PROTEIN [3]: 5.83 G/DL
- URIC ACID [3]: 1.43 mg/dL
- ABSOLUTE BASOPHIL [4]: 0 CELLS/uL
- ABSOLUTE EOSINOPHIL [4]: 171.67 CELLS/uL
- ABSOLUTE LYMPHOCYTE [4]: 8706.33 CELLS/uL
- ABSOLUTE MONOCYTE [4]: 43.33 CELLS/uL
- ABSOLUTE SEGMENTED NEUTROPHIL [4]: 3645.33 CELLS/uL
- BASOPHIL [4]: 0%
- EOSINOPHIL [4]: 1.33%
- ERYTHROCYTE COUNT [4]: 5.7 x10E6/uL
- HEMATOCRIT [4]: 35.8%
- HEMOGLOBIN [4]: 13.57 G/DL
- LEUKOCYTE COUNT [4]: 12.57 x10E3/uL
- LYMPHOCYTE [4]: 68.67%
- MEAN CORPUSCULAR HEMOGLOBIN [4]: 23.8 pg
- MEAN CORPUSCULAR HEMOGLOBIN CONCENTRATION [4]: 37.9 G/DL
- MEAN CORPUSCULAR VOLUME [4]: 62.8 fL
- MONOCYTE [4]: 0.33%
- NEUTROPHIL [4]: 29.67%
- NUCLEATED RED BLOOD CELLS [4]: 0 /100WBC
- PLATELET COUNT [4]: 1062 x10E3/uL
- ALANINE AMINOTRANSFERASE [4]: 52.67 u/L
- ALBUMIN [4]: 4.03 G/DL
- ALKALINE PHOSPHATASE [4]: 416.33 u/L
- ASPARTATE AMINOTRANSFERASE [4]: 80 u/L
- BLOOD UREA NITROGEN [4]: 15 mg/dL
- CARBON DIOXIDE [4]: 26 mmol/L
- CHLORIDE [4]: 104 MEQ/L
- CHOLESTEROL [4]: 60 mg/dL
- CREATINE PHOSPHOKINASE [4]: 226.67 u/L
- CREATININE [4]: 0.22 mg/dL
- GLUCOSE [4]: 181 mg/dL
- LACTATE DEHYDROGENASE [4]: 200 u/L
- LIPASE [4]: 7.67 u/L
- PHOSPHORUS [4]: 13.3 mg/dL
- POTASSIUM [4]: 6.09 MEQ/L
- SODIUM [4]: 146.53 MEQ/L
- TOTAL BILIRUBIN [4]: 0.13 mg/dL
- TOTAL PROTEIN [4]: 6.43 G/DL
- URIC ACID [4]: 1.77 mg/dL
